Legend:
Enterobacter aerogenes = assay: antibiogram by diffusion on Mueller-Hinton agar with antibiotic wafers; format: cell-based; conditions: Table C1, six wafers, disk loads of Table B
Enterobacter cloacea = assay: as above; format: cell-based; conditions: Table C1, six wafers, disk loads of Table B
Escherichia coli = assay: as above; format: cell-based; conditions: for synergy zone between two antibiotic wafers placed side by side: E. coli strain of BSBL phenotype, champagne-cork shaped inhibition zone; for resistance (I, R) or sensitivity (S): Table C1, disk loads of Table B; for resistant (I/R) or sensitive (S): Table C2, square dish
Klebsiella oxytoca = assay: as above; format: cell-based; conditions: Table C1; K. oxytoca phenotype Wild; six wafers, disk loads of Table B
Klebsiella pneumoniae = assay: as above; format: cell-based; conditions: for resistance (I, R) or sensitivity (S): Table C1, six wafers, disk loads of Table B; for resistant (I/R) or sensitive (S): Table C2, sixteen wafers, square dish
Proteus mirabilis = assay: as above; format: cell-based; conditions: Table C1, six wafers, disk loads of Table B
BSBL bacteria = conditions: all of the BSBL bacteria in Table C1
Text: Synergies are generated with the method on agar by the antibiotics diffusing in the agar as a result of the fact that providing the distance between two antibiotics is small enough (in the range 2 centimeters (cm) to 2.5 cm for Gram negative bacteria) they are capable of diffusing over a common portion of the agar, and as a result it is the association of the two antibiotics in this specific location that makes it possible, where appropriate, to see the appearance of a new inhibition zone, which is the synergy zone.
In the event of synergy occurring, it is possible to see mechanisms of synergy between two antibiotics since an additional inhibition zone appears generally between the two antibiotics in question. It may be in the form of an enlargement of the diameter around the disk A going towards the disk B if A and B present mutual synergy.
The BSBL phenotype includes a synergy phenotype between ceftriaxone and clavulanic acid, and thus between CRO and TCC or AMC (for all of the BSBL bacteria in the table).

[1] = E. coli phenotype BSBL, six wafers
[2] = E. coli phenotype Carbapenemase, six wafers
[3] = E. coli phenotype Hl cephalosporinase, six wafers
[4] = E. coli phenotype Hl penicillinase, six wafers
[5] = E. coli phenotype Inhibitor resistant penicillinase, six wafers
[6] = E. coli phenotype Ll penicillinase, six wafers
[7] = E. coli phenotype Wild, six wafers in a circle
[8] = E. coli phenotype Cephalosporinase + R to fluoroquinolones + R to cotrimoxazole + partial R to aminosides, sixteen wafers
[9] = E. coli phenotype Hl penicillinase + R to fluoroquinolones + R to cotrimoxazole + partial R to aminosides, sixteen wafers
[10] = E. coli phenotype Wild, sixteen wafers in a rectangular grid
[11] = K. pneumoniae phenotype Carbapenemase
[12] = K. pneumoniae phenotype Hl cephalosporinase
[13] = K. pneumoniae phenotype Hl penicillinase
[14] = K. pneumoniae phenotype Ll penicillinase
[15] = K. pneumoniae phenotype Cephalosporinase + R to aminosides + R to cotrimoxazole
[16] = P. mirabilis phenotype Hl cephalosporinase
[17] = P. mirabilis phenotype Hl penicillinase
[18] = P. mirabilis phenotype Inhibitor resistant penicillinase
[19] = P. mirabilis phenotype Ll penicillinase

CO/N=C(\C(=O)N[C@@H]1C(=O)N2C(C(=O)O)=C(CSc3nc(=O)c(=O)[nH]n3C)CS[C@H]12)c1csc(N)n1 [CRO, ceftriaxone]
resistance (I, R) or sensitivity (S) (Enterobacter aerogenes; E. aerogenes phenotype BSBL): R | resistance (I, R) or sensitivity (S) (Enterobacter aerogenes; E. aerogenes phenotype Wild): S | resistance (I, R) or sensitivity (S) (Enterobacter cloacea; E. cloacae phenotype BSBL): R | resistance (I, R) or sensitivity (S) (Enterobacter cloacea; E. cloacae phenotype Wild): S | synergy zone between two antibiotic wafers placed side by side (Escherichia coli): synergy zone | synergy zone between two antibiotic wafers placed side by side (Escherichia coli; listed as ceftriaxone): synergy | resistance (I, R) or sensitivity (S) (Escherichia coli; [1]): R | resistance (I, R) or sensitivity (S) (Escherichia coli; [2]): R | resistance (I, R) or sensitivity (S) (Escherichia coli; [3]): R | resistance (I, R) or sensitivity (S) (Escherichia coli; [4]): S | resistance (I, R) or sensitivity (S) (Escherichia coli; [5]): S | resistance (I, R) or sensitivity (S) (Escherichia coli; [6]): S | resistance (I, R) or sensitivity (S) (Escherichia coli; [7]): S | resistant (I/R) or sensitive (S) (Escherichia coli; [8]): R | resistant (I/R) or sensitive (S) (Escherichia coli; [9]): S | resistant (I/R) or sensitive (S) (Escherichia coli; [10]): S | resistance (I, R) or sensitivity (S) (Klebsiella oxytoca): S | resistance (I, R) or sensitivity (S) (Klebsiella pneumoniae; K. pneumoniae phenotype BSBL): I/R | resistance (I, R) or sensitivity (S) (Klebsiella pneumoniae; [11]): R | resistance (I, R) or sensitivity (S) (Klebsiella pneumoniae; [12]): I/R | resistance (I, R) or sensitivity (S) (Klebsiella pneumoniae; [13]): I | resistance (I, R) or sensitivity (S) (Klebsiella pneumoniae; [14]): S | resistance (I, R) or sensitivity (S) (Klebsiella pneumoniae; K. pneumoniae phenotype Wild): S | resistant (I/R) or sensitive (S) (Klebsiella pneumoniae; [15]): R | resistant (I/R) or sensitive (S) (Klebsiella pneumoniae; K. pneumoniae phenotype Wild): R | resistance (I, R) or sensitivity (S) (Proteus mirabilis; [16]): R | resistance (I, R) or sensitivity (S) (Proteus mirabilis; [17]): S | resistance (I, R) or sensitivity (S) (Proteus mirabilis; [18]): S | resistance (I, R) or sensitivity (S) (Proteus mirabilis; [19]): S | resistance (I, R) or sensitivity (S) (Proteus mirabilis; P. mirabilis phenotype Wild): S | synergy phenotype between antibiotics (BSBL bacteria): synergy

amoxicillin-clavulanic acid [AMC]
resistance (I, R) or sensitivity (S) (Enterobacter aerogenes; E. aerogenes phenotype BSBL): R | resistance (I, R) or sensitivity (S) (Enterobacter aerogenes; E. aerogenes phenotype Wild): S | resistance (I, R) or sensitivity (S) (Enterobacter cloacea; E. cloacae phenotype BSBL): R | resistance (I, R) or sensitivity (S) (Enterobacter cloacea; E. cloacae phenotype Wild): S | synergy zone between two antibiotic wafers placed side by side (Escherichia coli): synergy zone | synergy zone between two antibiotic wafers placed side by side (Escherichia coli; listed as amoxicillin+clavulanic acid): synergy | resistance (I, R) or sensitivity (S) (Escherichia coli; [1]): R | resistance (I, R) or sensitivity (S) (Escherichia coli; [2]): R | resistance (I, R) or sensitivity (S) (Escherichia coli; [3]): R | resistance (I, R) or sensitivity (S) (Escherichia coli; [4]): I/R | resistance (I, R) or sensitivity (S) (Escherichia coli; [5]): R | resistance (I, R) or sensitivity (S) (Escherichia coli; [6]): S | resistance (I, R) or sensitivity (S) (Escherichia coli; [7]): S | resistant (I/R) or sensitive (S) (Escherichia coli; [8]): R | resistant (I/R) or sensitive (S) (Escherichia coli; [9]): I | resistant (I/R) or sensitive (S) (Escherichia coli; [10]): S | resistance (I, R) or sensitivity (S) (Klebsiella oxytoca): S | resistance (I, R) or sensitivity (S) (Klebsiella pneumoniae; K. pneumoniae phenotype BSBL): R | resistance (I, R) or sensitivity (S) (Klebsiella pneumoniae; [11]): R | resistance (I, R) or sensitivity (S) (Klebsiella pneumoniae; [12]): I/R | resistance (I, R) or sensitivity (S) (Klebsiella pneumoniae; [13]): I/R | resistance (I, R) or sensitivity (S) (Klebsiella pneumoniae; [14]): S | resistance (I, R) or sensitivity (S) (Klebsiella pneumoniae; K. pneumoniae phenotype Wild): S | resistant (I/R) or sensitive (S) (Klebsiella pneumoniae; [15]): R | resistant (I/R) or sensitive (S) (Klebsiella pneumoniae; K. pneumoniae phenotype Wild): R | resistance (I, R) or sensitivity (S) (Proteus mirabilis; [16]): R | resistance (I, R) or sensitivity (S) (Proteus mirabilis; [17]): I | resistance (I, R) or sensitivity (S) (Proteus mirabilis; [18]): R | resistance (I, R) or sensitivity (S) (Proteus mirabilis; [19]): S | resistance (I, R) or sensitivity (S) (Proteus mirabilis; P. mirabilis phenotype Wild): S | synergy phenotype between antibiotics (BSBL bacteria): synergy

Source: patent publication US10837044B2, “Automated method for analyzing and interpreting an antimicrobial susceptibility” (FONDATION MEDITERRANEE INFECTION, priority 2014, dated 2020)
